According to patent US20120270929A1, “MODULATION OF TTC39 EXPRESSION TO INCREASE HDL” (ISIS Pharmaceuticals, Inc., priority 2009, published 2012):
Oligonucleotides are written 5' to 3', each unit as a sugar letter and its base; * is a phosphorothioate linkage, no mark a phosphodiester; rarer units and linkages stand in square brackets, end groups in braces. Plain capitals give the bases only. e = 2'-O-(2-methoxyethyl) (MOE); [5mC] = 5-methylcytosine; d = 2'-deoxy (DNA)

How the values were obtained:
[1] = Body and organ weights in C57BL/6 mice; format: in vivo, mouse
Method: (§1) Four groups of five mice each were injected twice a week with 25 mg/kg (totaling 50 mg/kg/week) of ISIS 447114, ISIS 447118, ISIS 447143, or ISIS 447144 for 6 weeks. A control group of five mice was injected with phosphate buffered saline (PBS) twice a week for 6 weeks. Plasma samples were obtained before the start of treatment, at week 3 and at week 6. At the end of the treatment period, mice were fasted for 4 hours before being euthanized. Plasma and tissue samples were obtained for further analysis.
Body weights of all the mice were measured weekly till the end of the treatment period. Organ weights were taken at the end of the treatment period when the mice were euthanized.

[2] = tested on: PCSK9 mRNA; assay: PCSK9 mRNA levels in C57BL/6 mice; format: in vivo, mouse; settings: 50 mg/kg/week, 6 weeks, compared to PBS control
Method: as §1
(§2) The effect of inhibition of TTC39B in mice on cholesterol homeostasis was studied. PCSK9 mRNA levels were measured using the murine primer probe set mPCSK9 (forward sequence ACCGACTTCAACAGCGTGC, designated herein as SEQ ID NO: 106; reverse sequence GGCTGTCACACTTGCTCGC, designated herein as SEQ ID NO: 107, probe sequence AGGATGGGACACGCTTCCACAGACAX, wherein X is a fluorophore, designated herein as SEQ ID NO: 108). LDLR mRNA levels were measured using the murine primer probe set mLDLR (forward sequence GACCGCAGCGAGTACACCA, designated herein as SEQ ID NO: 109; reverse sequence TCACCTCCGTGTCGAGAGC, designated herein as SEQ ID NO: 110, probe sequence […], designated herein as SEQ ID NO: 111). The results are presented as percentage inhibition compared to the PBS control.

[3] = Liver function: plasma transaminases (ALT, AST) in C57BL/6 mice; format: in vivo, mouse
Method: as §1
To evaluate the impact of ISIS oligonucleotides on the hepatic function of the mice described above, plasma concentrations of transaminases were measured using an automated clinical chemistry analyzer (Olympus Clinical Analyzer). Measurements of alanine transaminase (ALT) and aspartate transaminase (AST) are expressed in IU/L. The results are presented in Tables 19 and 20 and indicate that the oligonucleotides were well tolerated.

[4] = tested on: LDLR mRNA; assay: LDLR mRNA levels in C57BL/6 mice; format: in vivo, mouse; settings: 50 mg/kg/week, 6 weeks, compared to PBS control
Method: as §1, §2

[5] = tested on: SRB1 mRNA; assay: SRB1 mRNA levels in C57BL/6 mice after TTC39B inhibition; format: in vivo, mouse; settings: 50 mg/kg/week, 6 weeks
Method: as §1
(§3) The effect of inhibition of TTC39B in mice on these proteins of reverse cholesterol transport was studied. RNA levels of ABCA1 were measured using murine primer probe set RTS1204 (forward sequence […], designated herein as SEQ ID NO: 97; reverse sequence […], designated herein as SEQ ID NO: 98; and probe sequence […], designated herein as SEQ ID NO: 99). RNA levels of apoA1 were measured using murine primer probe set RTS14737 (forward sequence […], designated herein as SEQ ID NO: 100; reverse sequence […], designated herein as SEQ ID NO: 101; and probe sequence […], designated herein as SEQ ID NO: 102). RNA levels of SRB1 were measured using murine primer probe set mSRB-1 (forward sequence […], designated herein as SEQ ID NO: 103; reverse sequence ATGCGACTTGTCAGGCTGG, designated herein as SEQ ID NO: 104; and probe sequence […], designated herein as SEQ ID NO: 105).

[6] = tested on: murine TTC39B mRNA; assay: Dose-dependent antisense inhibition of murine TTC39B in mouse primary hepatocytes (Example 3); format: cell-based; settings: cytofectin, ~16 h
Method: Cells were plated at a density of 10,000 cells per well and transfected using cytofectin reagent with 6.25 nM, 12.5 nM, 25 nM, 50 nM, 100 nM, and 200 nM concentrations of antisense oligonucleotide, as specified in Table 4. After a treatment period of approximately 16 hours, RNA was isolated from the cells and TTC39B mRNA levels were measured by quantitative real-time PCR. Murine primer probe set mTtc39b_LTS00287 was used to measure mRNA levels. TTC39B mRNA levels were adjusted according to total RNA content, as measured by RIBOGREEN®. Results are presented as percent inhibition of TTC39B, relative to untreated control cells.

[7] = Plasma glucose in C57BL/6 mice (glucose oxidase assay); format: in vivo, mouse
Method: as §1
Plasma glucose values were determined using a Beckman Glucose Analyzer II (Beckman Coulter) by a glucose oxidase assay. As presented in Table 14, there was no significant change in glucose levels after treatment with ISIS oligonucleotides.

[8] = tested on: murine TTC39B mRNA; assay: In vivo antisense inhibition of murine TTC39B mRNA in liver of C57BL/6 mice; parameters: species or system mouse; settings: 50 mg/kg/week, 6 weeks, relative to PBS control
Method: as §1
RNA was extracted from liver tissue for real-time PCR analysis of TTC39B using murine primer probe set mTtc39b_LTS00287. […] Results are presented as an average of the percent inhibition of TTC39B, relative to control.

[9] = Plasma cholesterol and triglycerides in C57BL/6 mice (Olympus AU400e); format: in vivo, mouse
Method: as §1
To investigate the effect of inhibition of TTC39B on triglycerides and cholesterol levels in the plasma, samples were collected on weeks 0, 3, and 6, and total plasma cholesterol, LDL cholesterol, HDL cholesterol, and triglycerides were analyzed on an Olympus AU400e Analyzer.

[10] = tested on: ABCA1 mRNA; assay: ABCA1 mRNA levels in C57BL/6 mice after TTC39B inhibition; format: in vivo, mouse; settings: 50 mg/kg/week, 6 weeks
Method: as §1, §3

[11] = Week 0 (before treatment), 50 mg/kg/week

GCAGCTCGATTCGGGCATGA (antisense eG*e[5mC]*eA*eG*e[5mC]*dT*d[5mC]*dG*dA*dT*dT*d[5mC]*dG*dG*dG*e[5mC]*eA*eT*eG*eA) [ISIS 447118]
Kidney weight after treatment ([1]; 50 mg/kg/week, 6 weeks): 0.32 g
Liver weight after treatment ([1]; 50 mg/kg/week, 6 weeks): 1.4 g
Spleen weight after treatment ([1]; 50 mg/kg/week, 6 weeks): 0.08 g
body weight ([1]; Week 3, 50 mg/kg/week): 26 g
body weight ([1]; Week 6, 50 mg/kg/week): 27 g
body weight ([1]; week 1, 50 mg/kg/week): 24 g
body weight ([1]; week 2, 50 mg/kg/week): 25 g
body weight ([1]; week 4, 50 mg/kg/week): 26 g
body weight ([1]; week 5, 50 mg/kg/week): 27 g
Percent inhibition PCSK9 mRNA levels [2]: 45%
ALT levels [3, 11]: 29 IU/L
AST levels [3, 11]: 88 IU/L
ALT levels ([3]; Week 3, 50 mg/kg/week): 39 IU/L
AST levels ([3]; Week 3, 50 mg/kg/week): 39 IU/L
ALT levels ([3]; Week 6, 50 mg/kg/week): 50 IU/L
AST levels ([3]; Week 6, 50 mg/kg/week): 127 IU/L
Percent inhibition LDLR mRNA levels [4]: 6%
srb1 mRNA levels (effect of TTC39B inhibition) [5]: 0
percent inhibition of TTC39B mRNA ([6]; 6.25 nM): 0%
percent inhibition of TTC39B mRNA ([6]; 12.5 nM): 24%
percent inhibition of TTC39B mRNA ([6]; 25.0 nM): 45%
percent inhibition of TTC39B mRNA ([6]; 50.0 nM): 66%
percent inhibition of TTC39B mRNA ([6]; 100.0 nM): 77%
percent inhibition of TTC39B mRNA ([6]; 200.0 nM): 81%
glucose levels [7, 11]: 242 mg/dL
glucose levels ([7]; Week 3, 50 mg/kg/week): 271 mg/dL
glucose levels ([7]; Week 6, 50 mg/kg/week): 238 mg/dL
% inhibition of TTC39B mRNA in liver [8]: 73%
total cholesterol % increase over baseline ([9]; 50 mg/kg/week, 6 weeks, baseline average of 72 mg/dL): +37%
HDL cholesterol levels [9, 11]: 45 mg/dL
LDL cholesterol levels [9, 11]: 14 mg/dL
total cholesterol levels [9, 11]: 71 mg/dL
triglyceride levels [9, 11]: 82 mg/dL
HDL cholesterol levels ([9]; Week 3, 50 mg/kg/week): 50 mg/dL
HDL cholesterol levels (% change over baseline) ([9]; Week 3, 50 mg/kg/week): +15%
LDL cholesterol levels ([9]; Week 3, 50 mg/kg/week): 13 mg/dL
total cholesterol levels ([9]; Week 3, 50 mg/kg/week): 77 mg/dL
triglyceride levels ([9]; Week 3, 50 mg/kg/week): 69 mg/dL
HDL cholesterol levels ([9]; Week 6, 50 mg/kg/week): 100 mg/dL
HDL cholesterol levels (% change over baseline) ([9]; Week 6, 50 mg/kg/week): +89%
LDL cholesterol levels ([9]; Week 6, 50 mg/kg/week): 15 mg/dL
total cholesterol levels ([9]; Week 6, 50 mg/kg/week): 97 mg/dL
triglyceride levels ([9]; Week 6, 50 mg/kg/week): 88 mg/dL
abcA1 mRNA levels (effect of TTC39B inhibition) [10]: −2
